{"source": "patent US11071770B2", "about": "“Methods for detecting cardiac damage” (Acorda Therapeutics, Inc., priority 2007, dated 2021)", "molecules": {"B1": {"name": "NRG1: GGF2, a recombinant neuregulin-1; gift from Acorda Therapeutics (protein)", "chain": "GNEAAPAGASVCYSSPPSVGSVQELAQRAAVVIEGKVHPQRRQQGALDRKAAAAAGEAGAWGGDREPPAAGPRALGPPAEEPLLAANGTVPSWPTAPVPSAGEPGEEAPYLVKVHQVWAVKAGGLKKDSLLTVRLGTWGHPAFPSCGRLKEDSRYIFFMEPDANSTSRAPAAFRASFPPLETGRNLKKEVSRVLCKRCALPPRLKEMKSQESAAGSKLVLRCETSSEYSSLRFKWFKNGNELNRKNKPQNIKIQKKPGKSELRINKASLADSGEYMCKVISKLGNDSASANITIVESNATSTSTTGTSHLVKCAEKEKTFCVNGGECFMVKDLSNPSRYLCKCPNEFTGDRCQNYVMASFYSTSTPFLSLPE"}}, "key": {"[1]": {"system": "neonatal rat cardiomyocytes", "settings": "NRCM, doxorubicin 1 uM"}, "cytochrome c release": {"system": "cytochrome c release", "experiment": "Cytochrome c release (cell fractionation and Western blot)", "type": "cell-based, rat", "settings": "NRCM, Dox or Dox+NRG1"}, "C57BL/6 mice [2]": {"system": "C57BL/6 mice", "experiment": "Two-week survival of doxorubicin-treated mice (Kaplan-Meier)", "type": "in vivo, mouse", "settings": "two weeks after doxorubicin 20 mg/kg i.p.; NRG1 0.75 mg/kg s.c. daily vs placebo; doxorubicin vs non-treated control", "method": "(§1) FIGS. 1A-1C show survival graphs (A), histograms (B-C), and immunoblots (C). […] Fourteen day survival was analyzed by the Kaplan-Meier method.\nCardiac function was assessed by direct left ventricular (LV) catheterization four days and two weeks after doxorubicin treatment. Two-week survival was analyzed by the Kaplan-Meier methods."}, "cTnI": {"system": "cTnI", "experiment": "Ubiquitinylation of cTnI (immunoprecipitation, ubiquitin antibody)", "type": "cell-based, rat", "settings": "NRCM, Dox or Dox+NRG1"}, "[3]": {"system": "mRNA of cTnI, cTnT, GATA4, MEF2c and Nkx2.5", "experiment": "mRNA levels by quantitative RT-PCR in cardiomyocytes", "type": "cell-based, rat", "settings": "for mRNA level of cTnI and cTnT: cardiomyocytes, Dox or Dox+NRG1"}, "[4]": {"system": "mice with cardiac myocyte-specific overexpression of a dominant negative PI3K", "experiment": "Survival of doxorubicin-treated WT and dnPI3K transgenic mice (Kaplan-Meier)", "type": "in vivo, mouse", "settings": "doxorubicin 20 mg/kg i.p., fourteen-day"}, "[5]": {"system": "serum creatine kinase (CK)", "experiment": "Serum creatine kinase (CK) level", "type": "in vivo, mouse", "settings": "four days after doxorubicin injection", "method": "as §1\nSerum creatine kinase (CK) levels, an index of cardiac injury, were also assessed to provide an additional read-out of heart function."}, "[6]": {"system": "cTnI, cTnT and cTnC protein levels", "experiment": "Cardiac structural protein levels in heart by Western blot", "type": "in vivo, mouse", "method": "as §1\nEight to ten week old C57BL/6 male mice were used for analyses wherein heart samples were isolated. […] Heart samples (n=3-4 per group) were collected and snap-frozen in liquid nitrogen."}, "[7]": {"system": "caspase 3, 6 and 9 as well as caspase-10, 2, and 5", "experiment": "Caspase activation assay in cardiomyocytes", "type": "cell-based, rat", "settings": "Dox or Dox+NRG1", "source_text": "To investigate whether NRG1 inhibited doxorubicin-induced caspase degradation of cTnI and cTnT, the present inventors first identified the specific caspases that were responsible for doxorubicin-induced degradation of cTnI and cTnT. […] In addition, down-regulation of cTnI was blocked by inhibitors for caspase-10 (extrinsic pathway), caspase-2, caspase-13 or caspase-5."}, "C57BL/6 mice [8]": {"system": "C57BL/6 mice", "experiment": "Hemodynamic measurements by direct left ventricular catheterization, body and heart weights", "type": "in vivo, mouse"}, "[9]": {"system": "cTnI and cTnT protein levels", "experiment": "cTnI and cTnT protein levels in hearts of doxorubicin-treated WT and dnPI3K mice", "type": "in vivo, mouse", "settings": "two weeks after doxorubicin injection", "method": "FIGS. 5A-5C show a survival graph (A), histograms (B), and an immunoblot (C). […] Fourteen-day survival was analyzed by the Kaplan-Meier method. FIG. 5B depicts hemodynamic measurements in doxorubicin-treated dnPI3K mice. […] Hemodynamic measurements were performed six days after the doxorubicin treatment.\nThe present inventors measured cTnI and cTnT protein levels in doxorubicin-treated WT and dnPI3K mice."}, "[10]": {"system": "mTOR, P70S6K, S6 and eIF4G", "experiment": "Phosphorylation of translational molecules by Western blot", "type": "cell-based, rat", "settings": "cardiomyocytes, 48 hours after the treatment", "quoted_text": "The phosphorylation levels of mTOR, P70S6K, S6, 4EBP and EIF4G were analyzed by Western blot analysis.\nWe assessed the activation of several translation machineries and related signaling pathways in Dox-Placebo and Dox-NRG1 treated cardiomyocytes."}, "[11]": {"settings": "WT mice, NRG1 0.75 mg/kg s.c. or placebo"}, "[12]": {"settings": "doxorubicin-treated cardiomyocytes"}}, "note": "Marks after values point to notes of the source that are not given here. Where a SMILES comes first, the peptide text is derived from it. The star is where a group is joined. Cbz = O=C(OCc1ccccc1)*", "data": [{"molecule": "CC(C)C[C@@H](C=O)NC(=O)[C@H](CC(C)C)NC(=O)[C@H](CC(C)C)NC(=O)OCc1ccccc1", "note": "[MG132] (Cbz-Leu-Leu-Leu-aldehyde)", "values": [{"measurement": "effect on doxorubicin-induced down-regulation of cTnI", "setting": "[1]", "result": "blocked"}]}, {"molecule": "COc1cccc2c1C(=O)c1c(O)c3c(c(O)c1C2=O)C[C@@](O)(C(=O)CO)C[C@@H]3O[C@H]1C[C@H](N)[C@H](O)[C@H](C)O1", "note": "[doxorubicin]", "values": [{"measurement": "cytochrome c release to the cytosol", "setting": "cytochrome c release", "result": "induced increasing"}, {"measurement": "survival", "setting": "C57BL/6 mice [2]", "result": "significantly decreased"}, {"measurement": "ubiquitinylation of cTnI", "setting": "cTnI", "result": "increased"}, {"measurement": "mRNA level of cTnI and cTnT", "setting": "[3]", "result": "decreased"}, {"measurement": "survival rate", "setting": "[4]; [11]", "result": 33, "unit": "%"}, {"measurement": "serum CK level compared to control mice", "setting": "[5]", "result": "significantly increased"}, {"measurement": "levels of cardiac structural proteins (α-sarcomeric actin, α-actinin, TnT, TnI, TnC, tropomyosin) in hearts", "setting": "[6]; doxorubicin 20 mg/kg i.p.", "result": "significantly decreased"}, {"measurement": "activation of caspase 3, 6 and 9 as well as caspase-10, 2, and 5", "setting": "[7]", "result": "significantly increased"}, {"measurement": "BW", "setting": "C57BL/6 mice [8]; C57BL/6 mice, doxorubicin 20 mg/kg i.p. single dose with placebo or NRG1 0.75 mg/kg s.c. daily, five days after doxorubicin", "result": "20 ± 0.4", "unit": "g"}, {"measurement": "Cardiac Output", "setting": "C57BL/6 mice [8]; as E1", "result": "1185 ± 203", "unit": "µL/min"}, {"measurement": "EF", "setting": "C57BL/6 mice [8]; as E1", "result": "17 ± 2", "unit": "%"}, {"measurement": "HW/BW", "setting": "C57BL/6 mice [8]; as E1", "result": "4.1 ± 0.1", "unit": "mg/g"}, {"measurement": "HW/TL", "setting": "C57BL/6 mice [8]; as E1", "result": "5.1 ± 0.1", "unit": "mg/mm"}, {"measurement": "LVEDP", "setting": "C57BL/6 mice [8]; as E1", "result": "3.6 ± 0.9^ mmHg"}, {"measurement": "LVW/BW", "setting": "C57BL/6 mice [8]; as E1", "result": "3.5 ± 0.1^ mg/g"}, {"measurement": "LVW/TL", "setting": "C57BL/6 mice [8]; as E1", "result": "4.4 ± 0.1", "unit": "mg/mm"}, {"measurement": "dP/dt max", "setting": "C57BL/6 mice [8]; as E1", "result": "7067 ± 884 ^ mmHg/sec"}, {"measurement": "dP/dt min", "setting": "C57BL/6 mice [8]; as E1", "result": "5021 ± 602*^ mmHg/sec"}, {"measurement": "LVSP", "setting": "C57BL/6 mice [8]; as E1, LV systolic pressure", "result": "84 ± 2*^ mmHg"}, {"measurement": "HW", "setting": "C57BL/6 mice [8]; as E1, heart weight", "result": "83 ± 3", "unit": "mg"}, {"measurement": "LVW", "setting": "C57BL/6 mice [8]; as E1, left ventricular weight", "result": "70 ± 1", "unit": "mg"}, {"measurement": "TL", "setting": "C57BL/6 mice [8]; as E1, tibia length", "result": "16.3 ± 0.2 ^ mm"}, {"measurement": "cTnI protein level in dnPI3K hearts", "setting": "[9]", "result": "decrease"}, {"measurement": "cTnT protein levels in hearts of doxorubicin-treated mice compared to control mice", "setting": "[9]", "result": "No changes"}, {"measurement": "phosphorylation levels of mTOR, P70S6K, S6 and eIF4G", "setting": "[10]", "result": "decreased"}]}, {"molecule": "B1", "values": [{"measurement": "cytochrome c release to the cytosol", "setting": "cytochrome c release", "result": "inhibited this effect"}, {"measurement": "survival", "setting": "C57BL/6 mice [2]", "result": "significantly improved survival"}, {"measurement": "ubiquitinylation of cTnI", "setting": "cTnI", "result": "abolished this effect"}, {"measurement": "mRNA level of cTnI and cTnT", "setting": "[3]", "result": "maintained"}, {"measurement": "mRNA level of GATA4", "setting": "[3]; [12]", "result": "maintained"}, {"measurement": "mRNA level of MEF2c and Nkx2.5", "setting": "[3]; [12]", "result": "slightly increased"}, {"measurement": "survival rate", "setting": "[4]; [11]", "result": 67, "unit": "%"}, {"measurement": "survival rate", "setting": "[4]; dnPI3K mice, NRG1 0.75 mg/kg s.c.", "result": 56, "unit": "%"}, {"measurement": "protein levels of cTnI, cTnT and cTnC in doxorubicin-injured hearts", "setting": "[6]; NRG1 0.75 mg/kg s.c. daily, doxorubicin 20 mg/kg i.p., five days after doxorubicin", "result": "significantly increased"}, {"measurement": "protein levels of α-sarcomeric actin, α-actinin and tropomyosin in doxorubicin-injured hearts", "setting": "[6]; NRG1 injection in vivo", "result": "had no effects"}, {"measurement": "activation of caspase 3, 6 and 9 as well as caspase-10, 2, and 5", "setting": "[7]", "result": "significantly inhibited"}, {"measurement": "cTnI protein level in dnPI3K hearts", "setting": "[9]", "result": "abolished doxorubicin-induced down-regulation"}]}]}
